Experiment [1] relates to T-47D. As to the kind of experiment: Caspase cascade activation assay (N-(Ac-DEVD)-N'-ethoxycarbonyl-R110 fluorogenic substrate) in T-47D cells. Type of experiment: cell-based, Human. The following applies: for pEC50: read-out: Caspase potency EC50; for Caspase activity (Ratio): ratio of net RFU of compound to control, 0.16 to 10 μM final. The procedure:
(§1) Human breast cancer cell lines T-47D and ZR-75-1 were grown according to media component mixtures designated by American Type Culture Collection +10% FCS (Invitrogen Corporation), in a 5% CO2–95% humidity incubator at 37° C. T-47D and ZR-75-1 cells were maintained at a cell density between 30 and 80% confluency and for HL-60 at a cell density of 0.1 to 0.6×10^6 cells/mL. Cells were harvested at 600×g and resuspended at 0.65×10^6 cells/mL into appropriate media +10% FCS. An aliquot of 45 μL of cells was added to a well of a 96-well microtiter plate containing 5 μL of a 10% DMSO in RPMI-1640 media solution containing 1.6 to 100 μM of 1-benzoyl-3-cyano-pyrrolo[1,2-a]quinoline or other test compound (0.16 to 10 μM final). An aliquot of 45 μL of cells was added to a well of a 96-well microtiter plate containing 5 μL of a 10% DMSO in RPMI-1640 media solution without test compound as the control sample. The samples were mixed by agitation and then incubated at 37° C. for 24 h in a 5% CO2–95% humidity incubator. After incubation, the samples were removed from the incubator and 50 μL of a solution containing 20 μM of N-(Ac-DEVD)-N′-ethoxycarbonyl-R110 fluorogenic substrate (SEQ ID NO:1) (Cytovia, Inc.; U.S. Pat. No. 6,335,429), 20% sucrose (Sigma), 20 mM DTT (Sigma), 200 mM NaCl (Sigma), 40 mM Na PIPES buffer pH 7.2 (Sigma), and 500 μg/mL lysolecithin (Calbiochem) was added. The samples were mixed by agitation and incubated at room temperature. Using a fluorescent plate reader (Model 1420 Wallac Instruments), an initial reading (T=0) was made approximately 1–2 min after addition of the substrate solution, employing excitation at 485 nm and emission at 530 nm, to determine the background fluorescence of the control sample. After approximately 3 h of incubation, the samples were read for fluorescence as above (T=3 h).
(§2) The Relative Fluorescence Unit values (RFU) were used to calculate the sample readings as follows: RFU(T=3h)−Control RFU(T=0)=Net RFU(T=3h)
(§3) The activity of caspase cascade activation was determined by the ratio of the net RFU value for 1-benzoyl-3-cyano-pyrrolo[1,2-a]quinoline to that of control samples. The EC50 (nM) was determined by a sigmoidal dose-response calculation (Prism 2.0, GraphPad Software Inc.).

For a further experiment, the system named is ZR-75-1. As to the kind of experiment: Caspase cascade activation assay (N-(Ac-DEVD)-N'-ethoxycarbonyl-R110 fluorogenic substrate) in ZR-75-1 cells. In kind it is cell-based, Human. The following applies: for pEC50: read-out: Caspase potency EC50; for Caspase activity (Ratio): ratio of net RFU of compound to control, 0.16 to 10 μM final. As for the experimental part:
as §1, §2, §3

Experiment [2] concerns T-47D. As to the kind of experiment: Inhibition of cell proliferation (GI50, CellTiter 96 AQueous One Solution) in T-47D cells. In kind it is cell-based, Human. The following applies: read-out: GI50 (dose for 50% inhibition of cell proliferation). The procedure:
(§4) T-47D and SKBr-3 cells were grown and harvested as in Example 84. An aliquot of 90 μL of cells (2.2×10^4 cells/mL) was added to a well of a 96-well microtiter plate containing 10 μl of a 10% DMSO in RPMI-1640 media solution containing 1 nM to 100 μM of 1-benzoyl-3-cyano-pyrrolo[1,2-a]quinoline (0.1 nM to 10 μM final). An aliquot of 90 μL of cells was added to a well of a 96-well microtiter plate containing 10 μL of a 10% DMSO in RPMI-1640 media solution without compound as the control sample for maximal cell proliferation (AMax). The samples were mixed by agitation and then incubated at 37° C. for 48 h in a 5% CO2–95% humidity incubator. After incubation, the samples were removed from the incubator and 20 μL of CellTiter 96 AQUEOUS One Solution Cell Proliferation™ reagent (Promega) was added. The samples were mixed by agitation and incubated at 37° C. for 2–4 h in a 5% CO2–95% humidity incubator. Using an absorbance plate reader (Model 1420 Wallac Instruments), an initial reading (T=0) was made approximately 1–2 min after addition of the solution, employing absorbance at 490 nm. This determines the possible background absorbance of the test compounds. No absorbance for 1-benzoyl-3-cyano-pyrrolo[1,2-a]quinoline was found at 490 nm. After the 2–4 h incubation, the samples were read for absorbance as above (ATest).
(§5) Baseline for GI50 (dose for 50% inhibition of cell proliferation) of initial cell numbers were determined by adding an aliquot of 90 μL of cells or 90 μL of media, respectively, to wells of a 96-well microtiter plate containing 10 μL of a 10% DMSO in RPMI-1640 media solution. The samples were mixed by agitation and then incubated at 37° C. for 0.5 h in a 5% CO2–95% humidity incubator. After incubation, the samples were removed from the incubator and 20 μL of CellTiter 96 AQUEOUS One Solution Cell Proliferation ™ reagent (Promega) was added. The samples were mixed by agitation and incubated at 37° C. for 2–4 h in a 5% CO2–95% humidity incubator. Absorbance was read as above, (AStart) defining absorbance for initial cell number used as baseline in GI50 determinations. […]

A further experiment relates to SKBr-3. As to the kind of experiment: Inhibition of cell proliferation (GI50, CellTiter 96 AQueous One Solution) in SKBr-3 cells. In kind it is cell-based. The following applies: read-out: GI50 (dose for 50% inhibition of cell proliferation). As for the experimental part: as §4, §5
The mark [3] stands for this setting: Homo sapiens, T47D, T-47D, 24 h incubation, sigmoidal dose-response.
Setting [4] is: Homo sapiens, ZR-75-1, 24 h incubation, sigmoidal dose-response.

pEC50: −log10 of the molar value. Where two headings read alike, the source gives them in different places.

This is an account of results in patent US7135480B2, “Substituted 1-benzoyl-3-cyano-pyrrolo [1,2-a] quinolines and analogs as activators of caspases and inducers of apoptosis” (Cytovia, Inc., priority 2002, dated 2006).

Regarding `N#Cc1cc(C(=O)c2ccc(N3CCCC3)cc2)n2c1ccc1ccccc12` [Example 1, 3-Cyano-1-(4-pyrrolidin-1-yl-benzoyl)-pyrrolo[1,2-a]quinoline], the figures for the pEC50 with T-47D [1] (setting [3]) and in the experiment with ZR-75-1 (setting [4]) were 6.80 and 6.88, respectively. Moreover, the “Caspase activity (Ratio)” value was found to be 10 with T-47D [1] (T-47D, 24 h incubation) and 7 in the experiment with ZR-75-1 (ZR-75-1, 24 h incubation). For the same compound, the GI50 in the experiment with T-47D [2] (Homo sapiens, T47D, T-47D, 48 h incubation) is 36 nM; in the experiment on SKBr-3 (Homo sapiens, SK-BR-3, SKBR-3, 48 h incubation), 42 nM.
In the case of `N#Cc1cc(C(=O)c2ccccc2)n2c3c(ccc12)CCCC3` [Example 2, 1-Benzoyl-3-cyano-6,7,8,9-tetrahydro-pyrrolo[1,2-a]quinoline], the negative logarithm of the EC50 (pEC50) (commonly the negative decadic logarithm of the EC50, by convention in mol/L) with T-47D [1] (setting [3]) is less than 5.00; in the experiment with ZR-75-1 (setting [4]), 5.28. Further, the “Caspase activity (Ratio)” value in the experiment with T-47D [1] (T-47D, 24 h incubation) came out at 1; with ZR-75-1 (ZR-75-1, 24 h incubation) it was 2.
For `N#Cc1cc(C(=O)c2ccccc2)n2ccccc12` [Example 3, 3-Benzoyl-1-cyano-indolizine] the same measures were less than 5.00, less than 5.00, 1 and 1.
Turning to `COc1cccc(C(=O)c2cc(C#N)c3ccc4ccccc4n23)c1` [Example 4, 3-Cyano-1-(3-methoxy-benzoyl)-pyrrollo[1,2-a]quinoline], the pEC50 in the experiment with T-47D [1] (T-47D, 24 h incubation, sigmoidal dose-response) was 6.33; with ZR-75-1 (ZR-75-1, 24 h incubation, sigmoidal dose-response), 6.20. Besides, the “Caspase activity (Ratio)” value in the experiment with T-47D [1] (T-47D, 24 h incubation) is recorded as 12; with ZR-75-1 (ZR-75-1, 24 h incubation) it was 10. Besides, the GI50 in the experiment on T-47D [2] (T-47D, 48 h incubation) is 138 nM; in the experiment on SKBr-3 (SKBR-3, 48 h incubation) it was 93 nM.
As to `N#Cc1cc(C(=O)c2cccc(Br)c2)n2c1ccc1ccccc12` [Example 5, 1-(3-Bromo-benzoyl)-3-cyano-pyrrolo[1,2-a]quinoline], in the experiment with ZR-75-1 (setting [4]), the negative logarithm of the EC50 (pEC50) is 6.80. The “Caspase activity (Ratio)” value with ZR-75-1 (ZR-75-1, 24 h incubation) is given as 11.
Turning to `Cc1ccc(C(=O)c2cc(C#N)c3ccc4ccccc4n23)cc1` [Example 6, 3-Cyano-1-(4-methyl-benzoyl)-pyrrolo[1,2-a]quinoline], the pEC50 in the experiment on T-47D [1] (setting [3]) was 5.62; with ZR-75-1 (setting [4]) it was 5.86. Besides, the “Caspase activity (Ratio)” value is on record as 12 in the experiment with T-47D [1] (T-47D, 24 h incubation) and 14 with ZR-75-1 (ZR-75-1, 24 h incubation).
The corresponding values for `COc1ccc(C(=O)c2cc(C#N)c3ccc4ccccc4n23)cc1` [Example 7, 3-Cyano-1-(4-methoxy-benzoyl)-pyrrolo[1,2-a]quinoline] are 6.45, 6.73, 13 and 17.
For `N#Cc1cc(C(=O)c2ccc(Cl)cc2)n2c1ccc1ccccc12` [Example 8, 1-(4-Chloro-benzoyl)-3-cyano-pyrrolo[1,2-a]quinoline] the same measures were 6.23, 5.59, 12 and 11.
Regarding `N#Cc1cc(C(=O)c2ccc(F)cc2)n2c1ccc1ccccc12` [Example 9, 3-Cyano-1-(4-fluoro-benzoyl)-pyrrolo[1,2-a]quinoline], the pEC50 with T-47D [1] (setting [3]) and in the experiment on ZR-75-1 (setting [4]) was 6.82 throughout. Also, the “Caspase activity (Ratio)” value worked out at 12 with T-47D [1] (T-47D, 24 h incubation) and 12 with ZR-75-1 (ZR-75-1, 24 h incubation).
In the case of `N#Cc1cc(C(=O)c2ccc([N+](=O)[O-])cc2)n2c1ccc1ccccc12` [Example 10, 3-Cyano-1-(4-nitro-benzoyl)-pyrrolo[1,2-a]quinoline], the negative logarithm of the EC50 (pEC50) in the experiment on T-47D [1] (setting [3]) is 5.66; with ZR-75-1 (setting [4]) it was 5.90. The “Caspase activity (Ratio)” value was found to be 6 in the experiment with T-47D [1] (T-47D, 24 h incubation) and 14 in the experiment on ZR-75-1 (ZR-75-1, 24 h incubation).
For `N#Cc1cc(C(=O)c2ccc(N)cc2)n2c1ccc1ccccc12` [Example 11, 1-(4-Amino-benzoyl)-3-cyano-pyrrolo[1,2-a]quinoline] the same measures were 6.83, 6.83, 17 and 15.
As to `Cc1cc2c(C#N)cc(C(=O)c3ccccc3)n2c2ccccc12` [Example 12, 1-Benzoyl-3-cyano-5-methyl-pyrrolo[1,2-a]quinoline], the pEC50 in the experiment on T-47D [1] (setting [3]) is 5.93; with ZR-75-1 (setting [4]), 6.31. Moreover, the “Caspase activity (Ratio)” value is recorded as 14 in the experiment with T-47D [1] (T-47D, 24 h incubation) and 13 with ZR-75-1 (ZR-75-1, 24 h incubation).
For `Cc1ccc2c(ccc3c(C#N)cc(C(=O)c4ccccc4)n32)c1` [Example 13, 1-Benzoyl-3-cyano-7-methyl-pyrrolo[1,2-a]quinoline] the same measures were less than 5.00, 5.25, 1 and 2.
As to `N#Cc1cc(C(=O)c2ccccc2)n2c1ccc1ccccc12` [Example A, 1-benzoyl-3-cyano-pyrrolo[1,2-a]quinoline], the pEC50 was 6.62 in the experiment with T-47D [1] (Homo sapiens, T47D, 24 h) and 6.61 in the experiment with ZR-75-1 (Homo sapiens, ZR-75-1, 24 h). For the same compound, the “Caspase activity (Ratio)” value in the experiment with T-47D [1] (T-47D, 24 h incubation) came to 7; in the experiment on ZR-75-1 (ZR-75-1, 24 h incubation), 10. The GI50 with T-47D [2] (Homo sapiens, T47D, 48 h) came to 30 nM; in the experiment with SKBr-3 (Homo sapiens, SK-BR-3, 48 h) it was 32 nM.
